Source: publication PMC8151276, “An Integrated Approach toward NanoBRET Tracers for Analysis of GPCR Ligand Engagement” (Molecules, 2021)

Target: T1, RXFP2 (Homo sapiens, UniProt Q8WXD0)
T1 construct: purchased Promega (in-house HiBiT-GPCR construct library, NanoBRET)
Test: NanoBRET screen HiBiT-RXFP2 in HEK293
Type: binding
Protocol: Each tracer candidate was screened across the entire library of HiBiT-GPCR constructs using NanoBRET as the detection modality. As depicted in Figure 4A, the specificity of interactions was evaluated through decrease in BRET due to competitive displacement of a bound tracer by excess parental compound. Each tracer was analyzed for binding to each HiBiT-GPCR fusion in the absence and in the presence of competing parental compound. Briefly, HEK293 cells were transfected with HiBiT-GPCR constructs diluted into promoterless DNA to reduce expression and maximize translocation to the cell surface. Each tracer candidate was then screened at concentrations of 1 μM and 0.1 μM across cells expressing these fusions. Cells were treated for 1.5 h with tracer either alone or in the presence of 20 μM competing parental compound (i.e., control). BRET was measured upon addition of purified LgBiT and subsequent complementation with HiBiT genetically fused to a GPCR. The specificity of interactions was assessed through a decrease in BRET signal due to competitive displacement of the bound tracer. To further gauge the robustness of these interactions, the fold response over the control (i.e., BRETtracer/BRETcontrol) was calculated. We chose a 1.5-fold response, which translates to ≥7-fold signal over noise as the minimal threshold required to score an interaction as positive. […]. Below we highlight the screening results obtained for our exemplary fluorescent tracers based on Clozapine, Amitriptyline and AZD1283.
HiBiT-GPCR DNA constructs were diluted in 10 mM Tris pH 8 to a final concentration of 0.01 μg/μL, arrayed in 96-well plates and stored at −20 °C. For transfection, HEK293 cells were suspended in Opti-MEM (without phenol red) supplemented with 2% fetal bovine serum (Seradigm) and 100 units/mL penicillin–streptomycin (Gibco) at a final concentration of 220,000 cells/mL and dispensed into white 96-well plates at 90 μL/well. Subsequent transfections and screens were carried using an Agilent Bravo Automated Liquid Handling Platform. First, the 96-well HiBiT DNA arrays were diluted 25-fold in Opti-MEM (without serum or phenol red) to a final concentration of 0.0004 μg/μL and 20 μL of the diluted DNAs were transferred into new 96-well plates. Next, promoterless carrier DNA (1 μg/μL) was diluted 25-fold (0.04 μg/μL) and then dispensed into the diluted arrays at 20 μL/well. Following brief mixing, Viafect transfection reagent (Promega) diluted 16-fold into Opti-MEM was dispensed into the plates at 40 μL/well. After mixing by pipetting, plates were incubated for 10 min on the pipetting station deck. The DNA-transfection reagent complexes were then added to plates containing cells. To facilitate the screen, 10 μL of DNA-transfection reagent complexes were added in duplicates to the top 4 and bottom 4 rows, resulting in two identical 48-well arrays per plate. Plates with transfected cells were incubated for 18–20 h at 37 °C/5% CO2. A screen of each tracer across the entire library using two different concentrations requires duplicate plates of transfected cells. Depending on the number of tracers being screened, transfections can be scaled up using the same ratios. The next day, for each tracer, four 20× screening solutions in tracer dilution buffer (Promega) were prepared: two duplicates at final concentration of 20 μM and two duplicates at a final concentration of 2 μM. A competing unmodified compound was added to one of each duplicate at a final concentration of 400 μM. The four resulting solutions were diluted 4-fold in Opti-MEM without serum or phenol red to generate 5× solutions (5 µM and 0.5 µM tracer +/− 100 μM competing compound). To screen the library, a BioTek MultiFlo FX liquid dispenser was used to dispense 22.5 µL of tracer solution to the top 4 rows and 22.5 µL tracer + competing compound solution to the 4 bottom rows. Plates were briefly mixed on an orbital shaker and incubated for 1.5 h at room temperature. […]

T1 sequence (Q8WXD0 whole entry): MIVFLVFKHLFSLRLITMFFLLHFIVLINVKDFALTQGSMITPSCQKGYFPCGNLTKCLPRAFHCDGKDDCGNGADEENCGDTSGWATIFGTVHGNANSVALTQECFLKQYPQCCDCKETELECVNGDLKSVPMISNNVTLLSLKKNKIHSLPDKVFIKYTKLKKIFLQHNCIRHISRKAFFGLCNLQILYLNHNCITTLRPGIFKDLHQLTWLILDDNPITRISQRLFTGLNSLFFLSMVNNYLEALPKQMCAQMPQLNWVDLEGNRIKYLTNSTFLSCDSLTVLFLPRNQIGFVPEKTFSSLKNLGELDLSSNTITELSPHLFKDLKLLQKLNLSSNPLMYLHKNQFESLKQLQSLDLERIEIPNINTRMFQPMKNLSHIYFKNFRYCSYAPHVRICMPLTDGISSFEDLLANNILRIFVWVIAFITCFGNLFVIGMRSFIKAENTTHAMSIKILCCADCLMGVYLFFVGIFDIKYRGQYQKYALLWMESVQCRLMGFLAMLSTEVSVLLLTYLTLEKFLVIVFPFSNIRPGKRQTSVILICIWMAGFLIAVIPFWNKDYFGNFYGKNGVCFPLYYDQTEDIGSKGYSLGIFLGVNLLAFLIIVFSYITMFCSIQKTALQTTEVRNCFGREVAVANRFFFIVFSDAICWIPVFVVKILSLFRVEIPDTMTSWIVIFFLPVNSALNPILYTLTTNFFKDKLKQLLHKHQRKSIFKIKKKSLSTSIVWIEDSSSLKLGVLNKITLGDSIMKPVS

SMILES | NanoBRET Fold Response (RXFP2, tracer 0.1μM) | NanoBRET Fold Response (RXFP2, tracer 1μM) | further results
CCOC(=O)c1cc(C#N)c(N2CCC(C(=O)NS(=O)(=O)Cc3ccccc3/C=C/C(=O)NCCNC(=O)CCc3ccc4n3[B-](F)(F)[N+]3=C(c5ccc[nH]5)C=CC3=C4)CC2)nc1C [AZD1283-1-NB590] | – | – | NanoBRET Fold Response (RXFP2, 0.1μM): 1.25; NanoBRET Fold Response (RXFP2, 1μM): 1.29
N#CN=C(NCCCOc1cccc(CN2CCCCC2)c1)NCCNC(=O)CCOCCOCCOCCOCCNC(=O)CCc1ccc2n1[B-](F)(F)[N+]1=C(c3ccc[nH]3)C=CC1=C2 [Aminopotentidine-2-NB590] | 0.83 | 0.83 | –
CN(C)CCC=C1c2ccccc2CCc2ccc(C(=O)NCCNC(=O)CCOCCOCCOCCOCCNC(=O)CCc3ccc4n3[B-](F)(F)[N+]3=C(c5ccc[nH]5)C=CC3=C4)cc21 [Amitriptyline-b-2-NB590] | – | – | NanoBRET Fold Response (tracer at 0.1μM): 1.09; NanoBRET Fold Response (tracer at 1μM): 1.34
COc1ccc2c(n1)c(CCNC(C)=O)cn2CCNC(=O)CCc1ccc2n1[B-](F)(F)[N+]1=C(c3ccc[nH]3)C=CC1=C2 [Azamelatonin-1-NB590] | – | – | NanoBRET Fold Response (0.1μM tracer): 1.10; NanoBRET Fold Response (1μM tracer): 1.34
COc1ccc2[nH]c(-c3ccc(CNC(=O)CCOCCOCCOCCOCCNC(=O)CCc4ccc5n4[B-](F)(F)[N+]4=C(c6ccc[nH]6)C=CC4=C5)cc3)c(CCNC(C)=O)c2n1 [AzomelatoninICO9-2-NB590] | – | – | NanoBRET Fold Response (0.1μM tracer): 1.23; NanoBRET Fold Response (1μM tracer): 0.59
O=C(CCOCCOCCOCCOCCNC(=O)CCc1ccc2n1[B-](F)(F)[N+]1=C(c3ccc[nH]3)C=CC1=C2)NCCCN1CCN(C2=Nc3cc(Cl)ccc3Nc3ccccc32)CC1 [Clozapine-a-2-NB590] | – | – | NanoBRET Fold Response (RXFP2, 0.1μM tracer): 1.23; NanoBRET Fold Response (RXFP2, 1μM tracer): 1.14
CN1CCN(C2=Nc3cc(Cl)ccc3Nc3ccc(CNC(=O)CCOCCOCCOCCOCCNC(=O)CCc4ccc5n4[B-](F)(F)[N+]4=C(c6ccc[nH]6)C=CC4=C5)cc32)CC1 [Clozapine-b-2-NB590] | – | – | NanoBRET Fold Response (RXFP2, 0.1μM tracer): 1.04
CN1CCN(C2=Nc3cc(Cl)ccc3N(CC(=O)NCCOCCOCCOCCOCCNC(=O)CCc3ccc4n3[B-](F)(F)[N+]3=C(c5ccc[nH]5)C=CC3=C4)c3ccccc32)CC1 [Clozapine-c-2-NB590] | – | – | NanoBRET Fold Response (RXFP2, 0.1μM tracer): 0.62; NanoBRET Fold Response (RXFP2, 1μM tracer): 1.17
O=C(CCOCCOCCOCCOCCNC(=O)CCc1ccc2n1[B-](F)(F)[N+]1=C(c3ccc[nH]3)C=CC1=C2)NCCCN1CCN(C2=Nc3ccccc3Oc3ccc(Cl)cc32)CC1 [Loxapine-a-2-NB590] | 0.94 | 0.64 | –
COc1ccccc1N1CCN(CCCCN2C(=O)c3ccc(CNC(=O)CCOCCOCCOCCOCCNC(=O)CCc4ccc5n4[B-](F)(F)[N+]4=C(c6ccc[nH]6)C=CC4=C5)cc3C2=O)CC1 [NAN-190-2-NB590] | 0.78 | 1.17 | –
COc1ccccc1N1CCN(CCCCN2C(=O)c3ccc(CNC(=O)CCOCCNC(=O)c4ccc(CNC(=O)CCc5ccc6n5[B-](F)(F)[N+]5=C(c7ccc[nH]7)C=CC5=C6)cc4)cc3C2=O)CC1 [NAN-190-3-NB590] | 0.63 | 0.89 | –
O=C(CCc1ccc2n1[B-](F)(F)[N+]1=C(c3ccc[nH]3)C=CC1=C2)NCc1ccc(C(=O)NCCOCCC(=O)N[C@@H]2CC[C@@]3(O)[C@H]4Cc5ccc(O)c6c5[C@@]3(CCN4CC3CC3)[C@H]2O6)cc1 [Naltrexone-3-NB590] | 1.31 | 0.72 | –
Cc1cc2c(s1)Nc1ccccc1N=C2N1CCN(CCCNC(=O)CCOCCOCCOCCOCCNC(=O)CCc2ccc3n2[B-](F)(F)[N+]2=C(c4ccc[nH]4)C=CC2=C3)CC1 [Olanzapine-a-2-NB590] | 0.27 | 0.46 | –
O=C(CCc1ccc2n1[B-](F)(F)[N+]1=C(c3ccc[nH]3)C=CC1=C2)NCc1ccc(C(=O)NCCOCCOCCNCC(O)COc2cccc3ccccc23)cc1 (stereo not drawn) [Propranolol-3-NB590] | – | – | NanoBRET Fold Response (RXFP2, 0.1μM): 0.27; NanoBRET Fold Response (RXFP2, 1μM): 0.78
O=C(CCc1ccc2n1[B-](F)(F)[N+]1=C(c3ccc[nH]3)C=CC1=C2)NCCOCCOCCNC(=O)OCCOCCN1CCN(C2=Nc3ccccc3Sc3ccccc32)CC1 [Quetiapine-a-2-NB590] | 1.31 | 1.01 | –
Cc1nc2n(c(=O)c1CCN1CCC(c3noc4cc(F)ccc34)CC1)CCCC2OC(=O)NCCOCCOCCOCCOCCNC(=O)CCc1ccc2n1[B-](F)(F)[N+]1=C(c3ccc[nH]3)C=CC1=C2 (stereo not drawn) [Risperidone-2-NB590] | 1.20 | – | –
CC(C)N(CC[C@H](c1ccccc1)c1cc(CCNC(=O)CCOCCOCCOCCOCCNC(=O)CCc2ccc3n2[B-](F)(F)[N+]2=C(c4ccc[nH]4)C=CC2=C3)ccc1O)C(C)C [Tolterodine-2-NB590] | 1.11 | 1.30 | –
CC(C)N(CC[C@H](c1ccccc1)c1cc(CCNC(=O)c2ccc(CNC(=O)CCc3ccc4n3[B-](F)(F)[N+]3=C(c5ccc[nH]5)C=CC3=C4)cc2)ccc1O)C(C)C [Tolterodine-BZ-NB590] | 0.34 | 0.83 | –
CCCn1c(=O)c2[nH]c(-c3ccc(OCC(=O)NCCNC(=O)CCOCCNC(=O)c4ccc(CNC(=O)CCc5ccc6n5[B-](F)(F)[N+]5=C(c7ccc[nH]7)C=CC5=C6)cc4)cc3)nc2n(CCC)c1=O [XAC-3-NB590] | 1.20 | 1.28 | –
